Data: article PMC9852833, “Functional evaluation of cyclosporine metabolism by CYP3A4 variants and potential drug interactions” (Frontiers in Pharmacology, 2023)
Blank lines part the entries; values can stand above or below the molecule they belong to.

Key:
[1] = Pharmacokinetics of CsA and AM1 in rats with or without nimodipine or nisoldipine; assay type: in vivo, Sprague–Dawley rats; details: male SD rats, plasma, UPLC-MS/MS, mean ± SD n = 6
Description: Sprague–Dawley male rats weighing 200–250 g were purchased from Shanghai Laboratory Animal Center (SLAC). After 2 weeks of laboratory adaptation, the rats were randomly divided into three groups with six rats in each group. […] All drugs were orally administered. […] The collected blood samples were centrifuged to obtain the plasma. Then, 150 μl of acetonitrile and 20 μl of diazepam (IS; 100 ng/ml) were added to 50 μl of plasma, mixed and vortexed for 2 min, centrifuged for 10 min, and 4 μl of the supernatant was used for UPLC-MS/MS injection analysis.
The pharmacokinetic parameters were evaluated by DAS 3.0.

[2] = system: metabolism of CsA in rat liver microsomes (RLMs); experiment: Inhibition of CsA metabolism in rat liver microsomes (RLMs); details: for Inhibitory rate on the metabolism of CsA: screen of 132 drugs, RLMs […], Tris-HCl, NADPH 1 mM, AM1 by UPLC-MS/MS; for Inhibitory effect on the metabolism of CsA (in words): RLMs, comparison of five antihypertension drugs (Figure 2C)
Description: (§1) The concentrations of CsA, its main metabolite AM1, and diazepam (IS) were detected by UPLC–MS/MS equipped with a triple quadrupole and electrospray ionization (ESI) source. […] Briefly, the analytes were separated on a UPLC BEH C18 column (2.1 mm × 50 mm, 1.7 μm particle size). […] Solvent A (0.1% formic acid) and solvent B (acetonitrile) were applied as the mobile phase, with a gradient elution at a flow rate of 0.4 ml/min and an injection volume of 4 μl.
(§2) Reduced nicotinamide adenine dinucleotide phosphate (NADPH) (1 mmol/L) was added into the mixture after preincubation at 37°C for 5 min to initiate the reaction. The mixture was incubated for another 40 min, then cooled at −80°C to suspend the reaction. Then, 400 μl of acetonitrile and 20 μl of diazepam (200 ng/ml) were added to the frozen mixture. The mixtures were vortexed for 2 min and centrifuged at 13,000 rpm for 10 min. Finally, 4 μl of the mixture was injected for UPLC-MS/MS analysis.
(§3) A 200 μl system was incubated with either RLMs or HLMs (at a concentration of 0.15 mg/ml) containing drugs, CsA, RLMs or HLMs (all at a concentration of 0.15 mg/ml), Tris-HCl buffer, and 10 μl of NADPH (1 mM). […] The rest of the operation was the same as already described.

[3] = as above; details: SD
Description: as §1, §2, §3

[4] = system: metabolism of CsA in human liver microsomes (HLMs); CYP3A4; details: comparison of five antihypertension drugs (Figure 2D)
Description: as §1, §2, §3

[5] = metabolite after CsA 40 mg/kg oral + nimodipine 24 mg/kg oral
[6] = metabolite after CsA 40 mg/kg oral + nisoldipine 2 mg/kg oral
[7] = metabolite after CsA 40 mg/kg oral alone

- AUC(0-t) of AM1 [1, 5]: 3,291.60 ± 1,213.46 μg/L·h
- AUC(0-∞) of AM1 [1, 5]: 3,504.89 ± 1,223.40 μg/L·h
- CLz/F of AM1 [1, 5]: 207 ± 60 mL/min/kg
- Cmax of AM1 [1, 5]: 192.68 ± 69.42 ng/mL
- Tmax of AM1 [1, 5]: 7.00 ± 2.68 h
- Vz/F of AM1 [1, 5]: 198.16 ± 99.97 L/kg
- t1/2z of AM1 [1, 5]: 10.83 ± 3.52 h
- AUC(0-t) of AM1 [1, 6]: 1,548.46 ± 482.43 μg/L·h
- AUC(0-∞) of AM1 [1, 6]: 2,128.73 ± 887.82 μg/L·h
- CLz/F of AM1 [1, 6]: 354.3 ± 122 mL/min/kg
- Cmax of AM1 [1, 6]: 110.32 ± 19.52 ng/mL
- Tmax of AM1 [1, 6]: 6.17 ± 1.60 h
- Vz/F of AM1 [1, 6]: 494.23 ± 201.15 L/kg
- t1/2z of AM1 [1, 6]: 19.58 ± 13.45 h
- AUC(0-t) of AM1 [1, 7]: 2,275.37 ± 620.96 μg/L·h
- AUC(0-∞) of AM1 [1, 7]: 2,542.74 ± 779.21 μg/L·h
- CLz/F of AM1 [1, 7]: 283.8 ± 88.5 mL/min/kg
- Cmax of AM1 [1, 7]: 141.21 ± 30.64 ng/mL
- Tmax of AM1 [1, 7]: 6.83 ± 1.33 h
- Vz/F of AM1 [1, 7]: 264.78 ± 145.01 L/kg
- t1/2z of AM1 [1, 7]: 12.10 ± 9.00 h
Compound: CC[C@@H]1NC(=O)[C@H]([C@H](O)[C@H](C)C/C=C/CO)N(C)C(=O)[C@H](C(C)C)N(C)C(=O)[C@H](CC(C)C)N(C)C(=O)[C@H](CC(C)C)N(C)C(=O)[C@@H](C)NC(=O)[C@H](C)NC(=O)[C@H](CC(C)C)N(C)C(=O)[C@H](C(C)C)NC(=O)[C@H](CC(C)C)N(C)C(=O)CN(C)C1=O [AM1, CsA M-17]

- Inhibitory rate on the metabolism of CsA [2]: greater than 80%
Compound: N#CC1(c2ccc(NC(=O)c3cccnc3NCc3ccncc3)cc2)CCCC1 [apatinib, Apatinib]

- Inhibitory rate on the metabolism of CsA [2]: greater than 80%
Compound: CO[C@H]1C[C@@H]2CC[C@@H](C)[C@@](O)(O2)C(=O)C(=O)N2CCCC[C@H]2C(=O)O[C@H]([C@H](C)C[C@@H]2CC[C@@H](OCCO)[C@H](OC)C2)CC(=O)[C@H](C)/C=C(\C)[C@@H](O)[C@@H](OC)C(=O)[C@H](C)C[C@H](C)/C=C/C=C/C=C/1C [everolimus, Everolimus]

Compound: CCOC(=O)C1=C(C)NC(C)=C(C(=O)OC)C1c1cccc(Cl)c1Cl (stereo not shown) [felodipine]
- Inhibitory effect on the metabolism of CsA (in words) [2]: almost completely blocked the metabolism of CsA

- Inhibitory rate on the metabolism of CsA [2]: greater than 80%
Compound: C[C@@H](c1nc(-c2ccc(C#N)cc2)cs1)[C@](O)(Cn1cncn1)c1cc(F)ccc1F [isavuconazole, Isavuconazole]

- Inhibitory rate on the metabolism of CsA [2]: greater than 80%
Compound: Cc1cccc(C)c1OCC(=O)N[C@@H](Cc1ccccc1)[C@@H](O)C[C@H](Cc1ccccc1)NC(=O)[C@H](C(C)C)N1CCCNC1=O [lopinavir, Lopinavir]

Compound: COCCOC(=O)C1=C(C)NC(C)=C(C(=O)OC(C)C)C1c1cccc([N+](=O)[O-])c1 (stereo not shown) [nimodipine, Nimodipine]
- Inhibitory effect on the metabolism of CsA (in words) [2]: almost completely blocked the metabolism of CsA

Compound: COC(=O)C1=C(C)NC(C)=C(C(=O)OCC(C)C)C1c1ccccc1[N+](=O)[O-] (stereo not shown) [nisoldipine, Nisoldipine]
- IC50 [3]: 16.2 ± 0.78 µM
- Inhibitory effect on the metabolism of CsA (in words) [2]: almost completely blocked the metabolism of CsA
- Inhibitory rate on the metabolism of CsA [2]: greater than 80%
- Inhibitory effect on the metabolism of CsA (in words) [4]: almost completely blocked the metabolism of CsA

Compound: OCCOc1ccc(/C(=C(/CCCl)c2ccccc2)c2ccccc2)cc1 [ospemifene]
- Inhibitory rate on the metabolism of CsA [2]: greater than 80%

- Inhibitory rate on the metabolism of CsA [2]: greater than 80%
Compound: C=CC[C@@H]1/C=C(\C)C[C@H](C)C[C@H](OC)[C@H]2O[C@@](O)(C(=O)C(=O)N3CCCC[C@H]3C(=O)O[C@H](/C(C)=C/[C@@H]3CC[C@@H](O)[C@H](OC)C3)[C@H](C)[C@@H](O)CC1=O)[C@H](C)C[C@@H]2OC [tacrolimus, Tacrolimus]

- Inhibitory rate on the metabolism of CsA [2]: greater than 80%
Compound: C[C@@H](c1ncncc1F)[C@](O)(Cn1cncn1)c1ccc(F)cc1F [voriconazole, Voriconazole]
